Experimental data taken from patent US20200361895A1, “NOVEL SULFONAMIDE CARBOXAMIDE COMPOUNDS” (Inflazome Limited, priority 2017, published 2020).
Where a name gives a salt, the structure may show the parent alone.

Tests used:
NLRP3 [1] = biological target: T1, NLRP3 (Homo sapiens, UniProt Q96P20); test: THP-1 cells pyroptosis assay (LPS + nigericin, resazurin readout; THP IC50); type: cell-based; design: Seed THP-1 cells (25,000 cells/well) containing 1.0 μg/ml LPS in 40 μl of RPMI medium; host or cells: THP-1 cells
T1 sequence (Q96P20 whole entry): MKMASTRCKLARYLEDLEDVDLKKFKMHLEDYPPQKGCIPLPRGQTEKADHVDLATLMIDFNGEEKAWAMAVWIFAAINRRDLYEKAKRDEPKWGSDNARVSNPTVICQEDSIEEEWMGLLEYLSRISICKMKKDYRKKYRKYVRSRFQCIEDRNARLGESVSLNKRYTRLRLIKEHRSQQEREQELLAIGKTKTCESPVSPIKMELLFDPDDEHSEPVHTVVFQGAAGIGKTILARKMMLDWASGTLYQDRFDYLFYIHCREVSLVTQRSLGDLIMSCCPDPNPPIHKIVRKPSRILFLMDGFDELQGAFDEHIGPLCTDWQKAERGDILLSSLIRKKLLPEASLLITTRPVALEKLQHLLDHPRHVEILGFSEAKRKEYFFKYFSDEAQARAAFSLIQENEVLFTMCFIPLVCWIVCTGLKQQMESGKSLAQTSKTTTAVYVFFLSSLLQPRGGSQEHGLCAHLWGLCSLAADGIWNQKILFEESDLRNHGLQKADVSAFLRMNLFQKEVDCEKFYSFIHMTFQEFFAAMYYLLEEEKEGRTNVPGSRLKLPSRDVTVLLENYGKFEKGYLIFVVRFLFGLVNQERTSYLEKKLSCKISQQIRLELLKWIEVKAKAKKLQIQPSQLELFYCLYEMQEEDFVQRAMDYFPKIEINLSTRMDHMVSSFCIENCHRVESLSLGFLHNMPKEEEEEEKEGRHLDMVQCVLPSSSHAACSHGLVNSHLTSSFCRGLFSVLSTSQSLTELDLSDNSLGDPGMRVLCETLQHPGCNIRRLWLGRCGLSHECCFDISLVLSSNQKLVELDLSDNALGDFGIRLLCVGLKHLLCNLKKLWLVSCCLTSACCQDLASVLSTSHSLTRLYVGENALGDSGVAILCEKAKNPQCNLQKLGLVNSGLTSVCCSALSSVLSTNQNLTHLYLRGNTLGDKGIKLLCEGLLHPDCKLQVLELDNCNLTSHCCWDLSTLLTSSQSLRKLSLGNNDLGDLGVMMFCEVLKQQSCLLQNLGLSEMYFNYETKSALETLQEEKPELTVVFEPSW
In short: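 Human THP-1 cells, 25,000/well in serum-free RPMI with 1 μg/ml LPS, treated 3 hrs at 37° C with compound (8-point half-log, 10 μM top, 0.1% DMSO), then 5 μM nigericin 1 hr. Viability by 100 μM resazurin fluorescence after 1-2 hrs; IC50 by 4-parameter fit.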

NLRP3 [2] = biological target: T1, NLRP3; test: Human whole blood IL1β release assay (LPS + nigericin, AlphaLisa IL-1β; HWB IC50); type: cell-based; design: Human whole blood in Li-heparin tubes was obtained from healthy donors from a volunteer donor panel; from tissue; host or cells: human whole blood from healthy donors; details: IL-1β release
In short: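 Donor Li-heparin whole blood primed with 1 μg/ml LPS, given compound (8-point half-log series, 10 μM top; DMSO 0.1% final) for 3 h at 37 °C, then nigericin 10 μM final for 1 h. Supernatant IL-1β measured by AlphaLisa; IC50 from 4-parameter variable-slope fit.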

IC50 (NLRP3 [1]) [nM]	IC50 (NLRP3 [2]) [nM]	Structure (SMILES)
≤ 500	≤ 1000	COc1cc(-c2ccc3c(c2NC(=O)NS(=O)(=O)c2ccc(C(=O)N(C)C)cc2)CCC3)ccn1 [Example 308, 4-(N-((5-(2Mmethoxypyridin-4-yl)-2,3-dihydro-1H-inden-4-yl)carbamoyl)sulfamoyl)-N,N-dimethylbenzamide, sodium salt]
≤ 500	≤ 500	[2H]C([2H])([2H])Oc1cc(-c2ccc3c(c2NC(=O)NS(=O)(=O)c2ccc(CN(C)C)cc2)CCC3)ccn1 [Example 310, 4-((Dimethylamino)methyl)-N-((5-(2-(methoxy-d3)pyridin-4-yl)-2,3-dihydro-1H-inden-4-yl)carbamoyl)benzenesulfonamide]
≤ 500	≤ 500	COc1cc(-c2ccc3c(c2NC(=O)NS(=O)(=O)c2ccc(CN(C)C)cc2)CCO3)ccn1 [Example 311, 4-((Dimethylamino)methyl)-N-((5-(2-methoxypyridin-4-yl)-2,3-dihydrobenzofuran-4-yl)carbamoyl)benzenesulfonamide]
≤ 500	≤ 500	COc1cc(-c2ccc3c(c2NC(=O)NS(=O)(=O)c2ccn(C4(CN5CCC5)CCC4)n2)CCC3)ccn1 [Example 312, 1-(1-(Azetidin-1-ylmethyl)cyclobutyl)-N-((5-(2-methoxypyridin-4-yl)-2,3-dihydro-1H-inden-4-yl)carbamoyl)-1H-pyrazole-3-sulfonamide]
≤ 500	≤ 500	COc1cc(-c2ccc3c(c2NC(=O)NS(=O)(=O)c2ccc(CN(C)C)c(C4CC4)c2)CCC3)ccn1 [Example 313, 3-Cyclopropyl-4-((dimethylamino)methyl)-N-((5-(2-methoxypyridin-4-yl)-2,3-dihydro-1H-inden-4-yl)carbamoyl)benzenesulfonamide]
≤ 500	≤ 1000	COc1cc(-c2c(C)cc3c(c2NC(=O)NS(=O)(=O)c2ccn(C4CC4)n2)CCC3)ccn1 [Example 314, 1-Cyclopropyl-N-((5-(2-methoxypyridin-4-yl)-6-methyl-2,3-dihydro-1H-inden-4-yl)carbamoyl)-1H-pyrazole-3-sulfonamide]
≤ 500	≤ 500	CN1CCC(N(C)S(=O)(=O)NC(=O)Nc2c(-c3ccnc(C#N)c3)ccc3c2CCC3)C1 (stereo not drawn) [Example 317, 3-(N-Methyl-N-(1-methylpyrrolidin-3-yl)sulfamoyl)-1-(5-(2-cyanopyridin-4-yl)-2,3-dihydro-1H-inden-4-yl)urea]
≤ 1000	≤ 500	CN1CCC2CN(S(=O)(=O)NC(=O)Nc3c(-c4ccnc(C#N)c4)ccc4c3CCC4)CC21 (stereo not drawn) [Example 318, N-((5-(2-Cyanopyridin-4-yl)-2,3-dihydro-1H-inden-4-yl)carbamoyl)-1-methylhexahydropyrrolo[3,4-b]pyrrole-5(1H)-sulfonamide]
≤ 500	≤ 500	COc1cc(-c2ccc3c(c2NC(=O)NS(=O)(=O)N2CC4CCN(C)C4C2)CCC3)ccn1 (stereo not drawn) [Example 320, N-((5-(2-Methoxypyridin-4-yl)-2,3-dihydro-1H-inden-4-yl)carbamoyl)-1-methylhexahydropyrrolo[3,4-b]pyrrole-5(1H)-sulfonamide, potassium salt]
≤ 1000	≤ 500	CN1CCCC1CN(C)S(=O)(=O)NC(=O)Nc1c(-c2ccnc(C#N)c2)ccc2c1CCC2 (stereo not drawn) [Example 321, 3-(N-Methyl-N-((1-methylpyrrolidin-2-yl)methyl)sulfamoyl)-1-(5-(2-cyanopyridin-4-yl)-2,3-dihydro-1H-inden-4-yl)urea]
≤ 5000	≤ 500	CC(C)(O)c1coc(S(=O)(=O)NC(=O)Nc2c3c(nn2-c2ccncc2)CCC3)c1 [Example 323, 4-(2-Hydroxypropan-2-yl)-N-((2-(pyridin-4-yl)-2,4,5,6-tetrahydrocyclopenta[c]pyrazol-3-yl)carbamoyl)furan-2-sulfonamide]

Second part, the compound before the results:

Structure (SMILES)	IC50 (NLRP3 [1]) [nM]	IC50 (NLRP3 [2]) [nM]
CC(C)n1ccc(S(=O)(=O)NC(=O)Nc2c(-c3ccnc(C4CC4)c3)ccc3c2CCC3)n1 [Example 295, N-((5-(2-Cyclopropylpyridin-4-yl)-2,3-dihydro-1H-inden-4-yl)carbamoyl)-1-isopropyl-1H-pyrazole-3-sulfonamide, sodium salt]	≤ 500	≤ 1000
COCc1cc(-c2ccc3c(c2NC(=O)NS(=O)(=O)c2ccn(C(C)C)n2)CCC3)ccn1 [Example 296, 1-Isopropyl-N-((5-(2-(methoxymethyl)pyridin-4-yl)-2,3-dihydro-1H-inden-4-yl)carbamoyl)-1H-pyrazole-3-sulfonamide, sodium salt]	≤ 500	≤ 500
CC(C)n1ccc(S(=O)(=O)NC(=O)Nc2c(-c3ccnc(CO)c3)ccc3c2CCC3)n1 [Example 298, N-((5-(2-(Hydroxymethyl)pyridin-4-yl)-2,3-dihydro-1H-inden-4-yl)carbamoyl)-1-isopropyl-1H-pyrazole-3-sulfonamide]	≤ 500	≤ 1000
CC(C)n1ccc(S(=O)(=O)NC(=O)Nc2c(-c3ccnc(OCCO)c3)ccc3c2CCC3)n1 [Example 299, N-((5-(2-(2-Hydroxyethoxy)pyridin-4-yl)-2,3-dihydro-1H-inden-4-yl)carbamoyl)-1-isopropyl-1H-pyrazole-3-sulfonamide]	≤ 500	≤ 500
COCCOc1cc(-c2ccc3c(c2NC(=O)NS(=O)(=O)c2ccn(C(C)C)n2)CCC3)ccn1 [Example 300, 1-Isopropyl-N-((5-(2-(2-methoxyethoxy)pyridin-4-yl)-2,3-dihydro-1H-inden-4-yl)carbamoyl)-1H-pyrazole-3-sulfonamide, sodium salt]	≤ 500	≤ 1000
O=C(Nc1c(-c2ccncc2)ccc2c1CCC2)NS(=O)(=O)c1ccn(C2CC2)n1 [Example 303, 1-Cyclopropyl-N-((5-(pyridin-4-yl)-2,3-dihydro-1H-inden-4-yl)carbamoyl)-1H-pyrazole-3-sulfonamide]	≤ 500	≤ 500
O=C(Nc1c(-c2ccncc2)ccc2c1CCC2)NS(=O)(=O)c1ccn(C2CCC2)n1 [Example 304, 1-Cyclobutyl-N-((5-(pyridin-4-yl)-2,3-dihydro-1H-inden-4-yl)carbamoyl)-1H-pyrazole-3-sulfonamide]	≤ 500	≤ 500
COc1cc(-c2ccc3c(c2NC(=O)NS(=O)(=O)c2nn(C4CC4)cc2F)CCC3)ccn1 [Example 305, 1-Cyclopropyl-4-fluoro-N-((5-(2-methoxypyridin-4-yl)-2,3-dihydro-1H-inden-4-yl)carbamoyl)-1H-pyrazole-3-sulfonamide]	≤ 500	≤ 500
COc1cc(-c2ccc3c(c2NC(=O)NS(=O)(=O)c2ccn(C(C)(C)CN4CC(F)(F)C4)n2)CCC3)ccn1 [Example 306, 1-(1-(3,3-Difluoroazetidin-1-yl)-2-methylpropan-2-yl)-N-((5-(2-methoxypyridin-4-yl)-2,3-dihydro-1H-inden-4-yl)carbamoyl)-1H-pyrazole-3-sulfonamide]	≤ 500	≤ 500
COc1cc(-c2ccc3c(c2NC(=O)NS(=O)(=O)c2ccn(C(C)(C)CN4CC(F)C4)n2)CCO3)ccn1 [Example 307, 1-(1-(3-Fluoroazetidin-1-yl)-2-methylpropan-2-yl)-N-((5-(2-methoxypyridin-4-yl)-2,3-dihydrobenzofuran-4-yl)carbamoyl)-1H-pyrazole-3-sulfonamide]	≤ 500	≤ 500
